Test results reported in US8829033B2, “N-benzylamide substituted derivatives of 2-(acylamido)acetic acid and 2-(acylamido)propionic acids: potent neurological agents” (The University of North Carolina at Chapel Hill, priority 2009, dated 2014).
Read-outs that look alike come from different tables or passages of the source.

How the values were obtained:
[1] = system: Mice; test: Formalin test (mice, ip); assay type: in vivo; conditions: for Formalin Assay Acute (%) / Formalin Assay Inflam. (%): mice, ip
Procedure: Compounds of the present invention were active in treating pain in a formalin test carried out in accordance with standard techniques, as described in S. Hunskaar et al., J. Neurosci. Methods 14: 69-76 (1985). Briefly, 0.5% formalin is injected into the mouse hind paw to elicit a bi-phasic licking response, where the first acute phase is thought to correspond to the direct stimulation of peripheral fibers and the second (inflammatory) phase is caused by the release of inflammatory mediators.
Spinal/supraspinal plasticity of nociception is considered as a molecular basis for neuropathic pain particularly during the second (late) phase of the test (Dubuisson & Dennis, 1977; Coderre et al., 1990; Coderre & Melzack, 1992), during which most clinically used drugs against neuropathic pain are active.

[2] = system: Mice; test: 6 Hz test, mice (ip); assay type: in vivo
[3] = system: Rats; test: Hippocampal kindling test, rats (ip); assay type: in vivo; conditions: rats
Procedure: The kindling model provides a tool to predict a test compound's activity in complex partial seizures.
Male albino Sprague-Dawley rats (n=8) are kindled to a Stage 5 behavioral seizure. They are treated with an appropriate i.p. dose of the test compound after a 1-week, stimulus-free period. The test compound is evaluated for its effect on kindled motor seizures (seizures scores of 4 and 5), limbic behavior seizures (seizure scores between 1 and 3) and after-discharge duration. After 15 min, each rat is stimulated every 30 min for 3-4 h. Following each stimulation, individual seizure scores and after-discharge duration are recorded. The group mean and standard error of the mean (SEM) are calculated for each parameter.

[4] = system: Mice; test: Neurological toxicity, rotorod test, mice (ip); assay type: in vivo
Procedure: (§1) Tests are conducted in groups of at least 8 mice or rats to determine the intrinsic neurotoxicity (neuromuscular impairment) after administration of the test compound by the route of administration to be used in the pharmacology studies. Neurotoxicity is determined in male CF No 1 mice by the rotarod procedure. Inability of the mouse to maintain its equilibrium in 3 trials during 1 min on this rotating rod (6 rpm) is used as an indication of such impairment. In Sprague-Dawley rats, minimal motor impairment (MMI) is determined by overt evidence of ataxia, abnormal gait, and stance.

[5] = system: Rat; test: Behavioral toxicity, rat (po); assay type: in vivo
Procedure: as §1

[6] = system: Mice; test: Maximal electroshock seizure (MES) test, mice (ip);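 also: male albino CF No. 1 mice dosed ip, MES stimulus 50 mA at 60 Hz lasting 0.2 s, efficacy endpoint is loss of hind leg tonic extension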
Procedure: (§2) The maximal electroconvulsive shock (MES) test is regarded as a standard screen for anticonvulsant activity in terms of inhibition of seizure spread in generalized tonic-clonic seizures.
(§3) Groups of at least 8 male albino CF No. 1 mice or male albino Sprague-Dawley rats are treated with 10 mL/kg i.p. or 4 mL/kg p.o. of the test compound solution, respectively. The electrical stimulus in the MES test is 50 mA at 60 Hz for mice and 150 mA at 60 Hz for rats, both delivered for 0.2 sec. Abolition of the hind leg tonic extensor component of the seizure is used as the endpoint.

[7] = system: Rat; test: Maximal electroshock seizure (MES) test, rat (po); assay type: in vivo
Procedure: as §2, §3

[8] = system: Mice; conditions: rotorod, Ref 30, 16, 32; cited from earlier work
[9] = system: Mice; conditions: Ref 30, 16, 32; cited from earlier work
[10] = Neurological toxicity, rotorod test, mice (ip); assay type: in vivo; conditions: male, CF No 1, mouse, in vivo
Procedure: as §1

[11] = Behavioral toxicity, rat (po); assay type: in vivo; conditions: Sprague-Dawley, in vivo, po, read-out: Rat (po) Tox, TD50
Procedure: as §1

[12] = system: Mice
Procedure: as §2, §3

[13] = system: Rat; conditions: Ref 16, 32; cited from earlier work
[14] = system: Rat; conditions: Ref 16, 32; cited from earlier work; remark: listed apart in the source
[15] = system: Rats; test: Partial sciatic nerve ligation model (rats, ip); assay type: in vivo; conditions: dose 12 (mg), at 1 h, p < 0.05
[16] = Table b501, orally, behavioral toxicity
[17] = Table b501, ip, protective index (TD50/ED50)
[18] = Rattus norvegicus, read-out: Rat (po) MES, ED50

Compound: COC[C@@H](NC(C)=O)C(=O)NCc1ccc(OCc2cccc(F)c2)cc1 [(R)-10, (R)-2-Acetamido-N-(4-(3-fluorobenzyloxy)benzyl)-3-methoxypropanamide]
- Formalin Test (mice, ip) Inflammatory (%) ([1]; duration of licking as percent of control, late phase, dose 15 mg/kg): 44 (10) %
- Formalin Assay Acute (%) ([1]; dose 25 (mg)): 80%
- Formalin Assay Inflam. (%) ([1]; dose 25 (mg)): 70%
- Mice (ip) 6 Hz, ED50 ([2]; Table b500, intraperitoneally): ~10 [0.25] mg/kg
- Mice (ip) 6 Hz, ED50 ([2]; Table b501, intraperitoneally): ~10 [0.25] mg/kg
- Mice (ip) 6 Hz, ED50 ([2]; Table b502, intraperitoneally): ~10 [0.25] mg/kg
- Preliminary Hippocampal Kindling Test (Rats) After discharge duration, Drug ([3]; after drug (pre-drug duration in neighbouring column)): 0 s
- Preliminary Hippocampal Kindling Test (Rats) Seizure Score, Drug ([3]; after drug (pre-drug score in neighbouring column)): 0
- Mice (ip) Tox, TD50 ([4]; Table b500, rotorod test): 26 [0.5] mg/kg
- Mice (ip) Tox, TD50 ([4]; Table b502, rotorod test): 26 [0.5] mg/kg
- Mice (ip) Tox, Td50 ([4]; rotorod test): 26 [0.5] mg/kg
- Rat (po) Tox, TD50 ([5]; Table b500, orally, behavioral toxicity): >500 [0.5] mg/kg
- Rat (po) Tox, TD50 [5, 16]: >500 [0.5] mg/kg
- Rat (po) Tox, TD50 ([5]; Table b502, orally, behavioral toxicity): >500 [0.5] mg/kg
- Rat (po) Tox, TD50 ([5]; po): > 280 mg/kg
- Mice (ip) PI ([6]; Table b500, ip, protective index (TD50/ED50)): 2
- Mice (ip) MES, ED50 ([6]; Table b501, intraperitoneally): 13 [0.25] mg/kg
- Mice (ip) PI [6, 17]: 2
- Mice (ip) MES, ED50 ([6]; Table b502, intraperitoneally): 13 [0.25] mg/kg
- Mice (ip) PI ([6]; Table b502, ip, protective index (TD50/ED50)): 2
- Mice (ip) PI ([6]; ip, PI=TD50/ED50): ~3.1
- Rat (po) MES, ED50 [7]: 4.9 [1]
- Rat (po) PI ([7]; PI=TD50/ED50): >57
- ED50 ([7]; Rattus norvegicus, Table b500, orally, read-out: Rat (po) MES, ED50): 14 mg/kg
- ED50 ([7]; Rattus norvegicus, Table b502, orally, read-out: Rat (po) MES, ED50): 14 mg/kg
- ED50 ([7]; Rattus norvegicus, read-out: Rat (po) MES, ED50, Table b501, orally): 1.4 mg/kg
- Rat (po) PI ([7]; Table b500, protective index (TD50/ED50)): >36
- Rat (po) PI ([7]; Table b501, protective index (TD50/ED50)): >36
- Rat (po) PI ([7]; Table b502, protective index (TD50/ED50)): >36

Compound: CC(=O)N[C@@H](C)C(=O)NCc1ccccc1 [(S)-4, reference compound]
- Mice (ip) Tox, TD50 [8]: 630 mg/kg
- Mice (ip) Mes, ED50 [9]: 8.0 mg/kg

Compound: COCc1ccc(CNC(=O)[C@@H](COC)NC(C)=O)cc1 [(R)-8]
- TD50 ([10]; read-out: Mice (ip) Tox, TD50): 180 mg/kg
- TD50 [11]: > 500 mg/kg
- ED50 [7, 18]: 45 mg/kg

Compound: COC[C@@H](NC(C)=O)C(=O)NCc1ccc(C2(C(F)(F)F)N=N2)cc1 [(R)-9, (R)-2-Acetamido-3-methoxy-N-(4-(3-(trifluoromethyl)-3H-diazirin-3-yl)benzyl)propanamide]
- TD50 ([10]; read-out: Mice (ip) Tox, TD50): 68 mg/kg
- melting point: 195 °C (dec.)
- TD50 [11]: > 30 mg/kg
- Mice (ip) PI ([6]; ip, PI=TD50/ED50): 4.4
- ED50 ([7]; read-out: Rat (po) MES, ED50): > 30 mg/kg
- Mice (ip) MES, ED50 [12]: 15.05 [0.25] (13.93- 16.39)

Compound: COCCCc1ccc(CNC(=O)[C@@H](COC)NC(C)=O)cc1 [(R)-7]
- TD50 ([10]; read-out: Mice (ip) Tox, TD50): 62 mg/kg
- TD50 [11]: > 500 mg/kg
- ED50 [7, 18]: 16 mg/kg

Compound: COC[C@@H](NC(C)=O)C(=O)NCc1ccc(OCc2cccc(F)c2)cc1 [(R)-3, (R)-2-Acetamido-N-(4-(3-fluorobenzyloxy)benzyl)-3-methoxypropanamide]
- Rat (po) MES, ED50 [13]: 3.9 [2.0] mg/kg
- Formalin Assay Acute (%) ([1]; dose 15 (mg)): 35%
- Formalin Assay Inflam. (%) ([1]; dose 15 (mg)): 44%
- Rat (po) Tox, TD50 [14]: >500 mg/kg
- TD50 ([10]; read-out: Mice (ip) Tox, TD50): 26 mg/kg
- Mice (ip) Tox, TD50 [8]: 27 [0.25] mg/kg
- Partial Sciatic Nerve Ligation Assay: attenuation of mechanical allodynia [15]: 11.2 fold attentaution of mechanical
- Mice (ip) MES, ED50 ([6]; ip): 13 [0.25]
- Mice (ip) PI ([6]; ip, PI=TD50/ED50): ~2
- Rat (po) PI ([7]; PI=TD50/ED50): >36
- Mice (ip) Mes, ED50 [9]: 4.5 [0.5] mg/kg

Compound: COC[C@@H](NC(C)=O)C(=O)NCc1ccc(OC(F)(F)F)cc1 [(R)-4]
- Formalin Assay Acute (%) ([1]; dose 4.0 (mg)): 52%
- Formalin Assay Inflam. (%) ([1]; dose 4.0 (mg)): 50%
- TD50 [11]: > 30 mg/kg
- Mice (ip) PI ([6]; ip, PI=TD50/ED50): ~9.3
- ED50 [7, 18]: > 30 mg/kg

Compound: COC[C@@H](NC(C)=O)C(=O)NCc1ccc(Oc2cccc(F)c2)cc1 [(R)-12, (R)—N-4′-((3″-Fluoro)phenoxy)benzyl 2-N-Acetamido-3-methoxypropionamide]
- ED50 ([2]; Mus musculus, ip, intraperitoneally): ~10 mg/kg
- TD50 ([10]; rotorod test, read-out: Mice (ip) Tox, Td50): 23 mg/kg
- melting point: 125 to 126 °C
- Rat (po) Tox, TD50 [5, 16]: >10 [0.25-4.0] mg/kg
- Mice (ip) MES, ED50 ([6]; Table b501, intraperitoneally): 5.5 [0.25] (3.2-6.3) mg/kg
- Mice (ip) PI [6, 17]: 4.2
